Measurements published in PMC3202029 (Journal of ethnopharmacology, 2011).

How the values were obtained:
[1] = ref Konishi et al. 2005; Bérangère et al., 2004; cited from earlier work
Caco-2 cell monolayers = assay: Transepithelial transfer; type: in vitro ADME, human; conditions: for compound found in cells: cell homogenate after 4 h, before or after deconjugation; for uptake (transport rate): 4 h
Transepithelial transfer = type: in vitro ADME, human; conditions: human, Caco-2, pH 7.4

| basolateral detection at 0.5 and 1 h (Caco-2 cell monolayers; before deconjugation, 10 μM RA) | recovery at 4 h, 10 μM (Transepithelial transfer) | basolateral recovery of paracellular marker (Caco-2 cell monolayers; 100 μM LY) | Papp before deconjugation (Caco-2 cell monolayers; apical to basolateral, HBSS pH 7.4, RA 10 μM, UA 5, 10 and 20 μM, LY 100 μM) | Molecule | partition coefficient (Log P) [1] | compound found in cells (Caco-2 cell monolayers) | detection of UA after apical application of P. vulgaris extracts (Caco-2 cell monolayers; apically-applied P. vulgaris extracts containing 1-10 μM RA) | uptake (transport rate) (Caco-2 cell monolayers; highest tested concentration, 20 μM) | uptake (transport rate) (Caco-2 cell monolayers; lowest tested concentration, 5 μM) |
| --- | --- | --- | --- | --- | --- | --- | --- | --- | --- |
| not detected | 86.7 ± 2.9% | – | – | O=C(/C=C/c1ccc(O)c(O)c1)O[C@H](Cc1ccc(O)c(O)c1)C(=O)O [RA, Rosmarinic acid] | 0.2 | neither RA nor UA was found in cells | – | – | – |
| – | – | – | – | C[C@H]1[C@H](C)CC[C@]2(C(=O)O)CC[C@]3(C)C(=CC[C@@H]4[C@@]5(C)CC[C@H](O)C(C)(C)[C@@H]5CC[C@]43C)[C@H]12 [UA, Ursolic acid] | 6.4 | neither RA nor UA was found in cells | not detected | 0.2 ± 0.04 μM/h/cm^2 | 0.03 ± 0.01 μM/h/cm^2 |
| – | – | 0.5 ± 0.1% | 0.3 ± 0.1 cm/s ×10^−6 | lucifer yellow [LY, reference compound] | – | – | – | – | – |
